Results taken from PMC8712285, “Thermococcus sp. KS-1 PPIase as a fusion partner improving soluble production of aromatic amino acid decarboxylase” (AMB Express, 2021).

Experiments:
PPIase KS-1-AADC [1] = molecular target: T1, PPIase KS-1-AADC (Pseudomonas putida, UniProt Q88JU5); experiment: HPLC of dopamine formation, cell-free extract; assay type: biochemical; conditions: 1 mM L-dopa, 50 uM PLP, 2 mM 2-ME, 50 mM potassium phosphate pH 8.0, 30 °C
T1 construct: gene PP_2552; AADC with N-terminal solubility partner Thermococcus sp; not cut; E. coli BL21(DE3)

NusA-AADC = molecular target: T2, NusA-AADC (Pseudomonas putida, UniProt Q88JU5); experiment: HPLC of dopamine formation, cell-free extract; assay type: biochemical; conditions: 1 mM L-dopa, 50 uM PLP, 2 mM 2-ME, 50 mM potassium phosphate pH 8.0, 30 °C
T2 construct: gene PP_2552; E. coli BL21(DE3)

[2] = molecular target: T3, AADC (aromatic amino acid decarboxylase) (Pseudomonas putida, UniProt Q88JU5); experiment: HPLC of dopamine formation, cell-free extract; assay type: biochemical; conditions: 1 mM L-dopa, 50 uM PLP, 2 mM 2-ME, 50 mM potassium phosphate pH 8.0, 30 °C
T3 construct: gene PP_2552; full-length, untagged, from pET-3a (pAADC) in E. coli BL21(DE3)

PPIase KS-1-AADC [3] = molecular target: T1, PPIase KS-1-AADC; experiment: HPLC (AccQ-tag) of phenylethylamine produced by recombinant E. coli cells; assay type: cell-based; conditions: 1 mM L-phenylalanine, M9 minimal medium, 25 °C, whole cells

T1 sequence (Q88JU5 entry or part of it): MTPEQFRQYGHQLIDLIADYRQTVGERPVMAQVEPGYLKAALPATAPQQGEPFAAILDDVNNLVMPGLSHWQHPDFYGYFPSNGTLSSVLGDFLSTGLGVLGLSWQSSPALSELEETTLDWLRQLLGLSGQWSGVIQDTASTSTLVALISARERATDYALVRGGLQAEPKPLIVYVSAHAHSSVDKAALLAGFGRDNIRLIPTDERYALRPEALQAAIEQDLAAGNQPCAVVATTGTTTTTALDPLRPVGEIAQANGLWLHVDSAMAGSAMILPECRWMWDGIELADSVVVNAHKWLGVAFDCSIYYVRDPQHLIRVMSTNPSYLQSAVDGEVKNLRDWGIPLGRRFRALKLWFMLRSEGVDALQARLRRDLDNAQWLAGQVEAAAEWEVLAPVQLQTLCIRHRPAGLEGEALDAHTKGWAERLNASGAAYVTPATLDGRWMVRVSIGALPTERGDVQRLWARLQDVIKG
T3 sequence (Q88JU5 entry or part of it): as above
T2 sequence (Q88JU5 entry or part of it): as above

SMILES | HPLC of dopamine formation, cell-free extract (PPIase KS-1-AADC [1]) | HPLC of dopamine formation, cell-free extract (NusA-AADC) | HPLC of dopamine formation, cell-free extract [2] | HPLC (AccQ-tag) of phenylethylamine produced by recombinant E. coli cells (PPIase KS-1-AADC [3])
N[C@@H](Cc1ccc(O)c(O)c1)C(=O)O [L-dopa] | the AADC activity toward L-dopa was significantly higher in PPIase KS−1-AADC as compared to NusA-AADC | the AADC activity toward L-dopa was significantly higher in PPIase KS−1-AADC as compared to NusA-AADC | The AADC activity was measured using these cell-free extracts | 
N[C@@H](Cc1ccccc1)C(=O)O [L-phenylalanine] |  |  |  | Phenylethylamine accumulation was also higher in PPIase KS−1-AADC-producing strain
